What was measured:
T-47D = experiment: Cellular Assay T-47D; format: cell-based; conditions: Homo sapiens, T47D; T-47D cells
[1] = biological target: human full length PIK3CA Wild-type (p110α/p85α complex) (Homo sapiens (Human), UniProt P42336); experiment: PI3K-Alpha kinase (PIK3CA) activity, wild-type, Transcreener ADP2 FI assay; conditions: PI3K-α (PIK3CA) wild-type, biochemical
Method in brief: (§1)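 Recombinant full-length p110α/p85α (1-5 nM, wild-type or H1047R) preincubated with compound 1 h at 27° C, then reacted with 25 uM ATP and 50 uM PIP2diC8 or membrane PIP2:PS in pH 7.4 HEPES, 25 mM MgCl2, 5% DMSO (also pH 6.0/6.4 MOPS). Run to ~2.5 uM ADP; Transcreener ADP2 fluorescence converted via ADP calibration for IC50.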

[2] = biological target: human full length PIK3CA H1047R mutant (p110α/p85α complex) (Homo sapiens (Human), UniProt P42336, H1047R); experiment: PI3K-Alpha kinase (PIK3CA) activity, H1047R mutant, Transcreener ADP2 FI assay; conditions: PI3K-α (PIK3CA) H1047R mutant, biochemical
Chain of human full length PIK3CA H1047R mutant (p110α/p85α complex) (P42336 whole entry H1047R): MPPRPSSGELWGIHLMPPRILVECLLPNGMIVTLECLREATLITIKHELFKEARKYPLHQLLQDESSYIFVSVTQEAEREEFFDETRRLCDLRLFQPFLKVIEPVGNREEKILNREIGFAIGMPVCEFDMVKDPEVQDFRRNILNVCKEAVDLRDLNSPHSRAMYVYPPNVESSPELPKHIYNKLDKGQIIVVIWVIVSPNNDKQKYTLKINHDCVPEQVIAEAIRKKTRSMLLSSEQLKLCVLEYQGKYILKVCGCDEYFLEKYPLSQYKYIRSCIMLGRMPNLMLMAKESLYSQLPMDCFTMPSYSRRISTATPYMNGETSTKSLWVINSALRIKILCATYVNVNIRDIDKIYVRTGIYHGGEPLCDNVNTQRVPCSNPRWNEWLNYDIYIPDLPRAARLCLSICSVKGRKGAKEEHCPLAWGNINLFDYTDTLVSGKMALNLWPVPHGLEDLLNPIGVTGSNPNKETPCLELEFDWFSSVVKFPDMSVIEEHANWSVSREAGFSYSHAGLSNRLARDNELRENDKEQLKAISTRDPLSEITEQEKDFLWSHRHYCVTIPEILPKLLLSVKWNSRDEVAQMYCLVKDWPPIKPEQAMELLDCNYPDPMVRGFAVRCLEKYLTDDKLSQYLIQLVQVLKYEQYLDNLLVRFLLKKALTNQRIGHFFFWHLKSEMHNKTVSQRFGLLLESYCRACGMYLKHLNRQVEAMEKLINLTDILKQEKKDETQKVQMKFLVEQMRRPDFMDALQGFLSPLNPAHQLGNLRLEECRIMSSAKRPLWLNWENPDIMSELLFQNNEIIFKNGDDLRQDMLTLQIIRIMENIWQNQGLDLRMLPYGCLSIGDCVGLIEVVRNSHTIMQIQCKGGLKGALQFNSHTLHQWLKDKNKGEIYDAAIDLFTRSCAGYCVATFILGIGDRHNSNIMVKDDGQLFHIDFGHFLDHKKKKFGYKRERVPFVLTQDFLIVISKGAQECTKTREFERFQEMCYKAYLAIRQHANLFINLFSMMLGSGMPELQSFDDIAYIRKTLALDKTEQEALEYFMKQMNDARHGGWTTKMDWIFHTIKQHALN
Chain of human full length PIK3CA H1047R mutant (p110α/p85α complex) (P27986 whole entry partner): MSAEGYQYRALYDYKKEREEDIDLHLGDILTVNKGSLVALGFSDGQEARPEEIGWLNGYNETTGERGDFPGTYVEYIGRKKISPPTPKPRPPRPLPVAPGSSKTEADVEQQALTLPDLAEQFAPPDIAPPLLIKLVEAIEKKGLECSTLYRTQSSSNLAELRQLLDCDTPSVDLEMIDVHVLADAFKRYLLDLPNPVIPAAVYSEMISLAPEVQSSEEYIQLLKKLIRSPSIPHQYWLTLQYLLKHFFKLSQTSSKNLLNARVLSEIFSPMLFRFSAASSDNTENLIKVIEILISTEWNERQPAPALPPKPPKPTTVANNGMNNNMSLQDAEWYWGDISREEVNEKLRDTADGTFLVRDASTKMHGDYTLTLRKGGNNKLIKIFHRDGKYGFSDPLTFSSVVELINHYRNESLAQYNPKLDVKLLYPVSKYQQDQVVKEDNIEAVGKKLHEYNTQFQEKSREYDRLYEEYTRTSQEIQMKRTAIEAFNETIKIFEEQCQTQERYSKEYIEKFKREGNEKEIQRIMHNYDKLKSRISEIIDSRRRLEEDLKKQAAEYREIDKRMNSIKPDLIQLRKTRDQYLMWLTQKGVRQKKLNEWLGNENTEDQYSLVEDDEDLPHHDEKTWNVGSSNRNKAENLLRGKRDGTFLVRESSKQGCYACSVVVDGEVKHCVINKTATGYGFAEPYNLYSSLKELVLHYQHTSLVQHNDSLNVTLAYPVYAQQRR
Method in brief: as §1

Chain of human full length PIK3CA Wild-type (p110α/p85α complex) (P42336 whole entry): as the sequence (P42336 whole entry H1047R) above, with R1047H counted along it
Chain of human full length PIK3CA Wild-type (p110α/p85α complex) (P27986 whole entry partner): as the sequence (P27986 whole entry partner) above

Row | Compound | EC50 (T-47D) [µM] | IC50 [1] [µM] | IC50 [2] [µM]
1 | Cc1cc(C(C)Nc2ccccc2C(=O)O)c2oc(N3CCCC4(CCNC4=O)C3)cc(=O)c2c1 (stereo not drawn) [Example 95, 2-[1-[6-Methyl-4-oxo-2-(1-oxo-2,9-diazaspiro[4.5]decan-9-yl)chromen-8-yl]ethylamino]benzoic acid] | > 24 | – | –
2 | Cc1cc(C(C)Nc2cccc3c2C(=O)NC3=O)c2oc(N3CCC(C)(C)CC3)cc(=O)c2c1 (stereo not drawn) [Example 32, 4-((1-(2-(4,4-Dimethylpiperidin-1-yl)-6-methyl-4-oxo-4H-chromen-8-yl)ethyl)amino)isoindoline-1,3-dione] | > 24 | – | –
3 | Cc1cc(C(C)Nc2cccc(F)c2C(=O)O)c2oc(N3CCC(C)(C)CC3)cc(=O)c2c1 (stereo not drawn) [Example 23, 2-[1-[2-(4,4-Dimethyl-1-piperidyl)-6-methyl-4-oxo-chromen-8-yl]ethylamino]-6-fluoro-benzoic acid] | 5 to 15 | – | –
4 | Cc1cc(C(C)Nc2ccccc2C(=O)O)c2oc(NCC(C)C)cc(=O)c2c1 (stereo not drawn) [Example 77, 2-[1-[2-(Isobutylamino)-6-methyl-4-oxo-chromen-8-yl]ethylamino]benzoic acid] | > 24 | – | –
5 | Cc1cc(C(C)Nc2cc(C)c(C)cc2C(=O)O)c2oc(N3CCC(C)(C)CC3)cc(=O)c2c1 (stereo not drawn) [Example 12, 2-[1-[2-(4,4-Dimethyl-1-piperidyl)-6-methyl-4-oxo-chromen-8-yl]ethylamino]-4,5-dimethyl-benzoic acid] | > 24 | – | –
6 | Cc1cc(C(C)Nc2ccccc2S(=O)(=O)O)c2oc(N3CCC(C)(C)CC3)cc(=O)c2c1 (stereo not drawn) [Example 4, 2-[1-[2-(4,4-Dimethyl-1-piperidyl)-6-methyl-4-oxo-chromen-8-yl]ethylamino]benzenesulfonic acid] | – | 1 to 5 | 1 to 5
7 | Cc1cc(C(C)Nc2ccccc2C(=O)O)c2oc(N3Cc4ccccc4C3)c(C)c(=O)c2c1 (single isomer, unassigned; isomer 1) [Example 265, 2-[1-(2-Isoindolin-2-yl-3,6-dimethyl-4-oxo-chromen-8-yl)ethylamino]benzoic acid, Isomer 1] | – | 1 to 5 | < 0.5
8 | Cc1cc(C(C)Nc2ccccc2C(=O)O)c2oc(N3CC4(CCN4c4ccccc4)C3)cc(=O)c2c1 (single isomer, unassigned) [Example 203, 2-[1-[6-Methyl-4-oxo-2-(1-phenyl-1,6-diazaspiro[3.3]heptan-6-yl)chromen-8-yl]ethylamino]benzoic acid 2,2,2-trifluoroacetic acid] | – | 1 to 5 | < 0.5

The next lines start with the values.

Row | EC50 (T-47D) [µM] | IC50 [1] [µM] | IC50 [2] [µM] | Compound
9 | > 24 | – | – | COc1cc(NC(C)c2cc(C)cc3c(=O)cc(N4CCC(C)(C)CC4)oc23)c(C(=O)O)cc1OC (stereo not drawn) [Example 16, 2-[1-[2-(4,4-Dimethyl-1-piperidyl)-6-methyl-4-oxo-chromen-8-yl]ethylamino]-4,5-dimethoxy-benzoic acid]
10 | < 1 | – | – | Cc1cc(C(C)Nc2ccccc2C(=O)O)c2oc(N3CCC(C)(C)CC3)c(C)c(=O)c2c1 (single isomer, unassigned) [Example 358, 2-[1-[2-(4,4-Dimethyl-1-piperidyl)-3,6-dimethyl-4-oxo-chromen-8-yl]ethylamino]benzoic acid]
11 | 15 to 24 | – | – | Cc1cc(C(C)Nc2cc(F)c(F)cc2C(=O)O)c2oc(N3CCC(C)(C)CC3)cc(=O)c2c1 (stereo not drawn) [Example 13, 2-[1-[2-(4,4-Dimethyl-1-piperidyl)-6-methyl-4-oxo-chromen-8-yl]ethylamino]-4,5-difluoro-benzoic acid]
12 | – | 0.5 to 1 | < 0.5 | CC(Nc1ccccc1C(=O)O)c1cc(C(F)(F)F)cc2c(=O)cc(N3Cc4ccc(F)cc4C3)oc12 (single isomer, unassigned) [Example 335, 2-[1-[2-(5-Fluoroisoindolin-2-yl)-4-oxo-6-(trifluoromethyl)chromen-8-yl]ethylamino]benzoic acid]
13 | – | 0.5 to 1 | < 0.5 | Cc1cc(C(C)Nc2ccccc2C(=O)O)c2oc(N3Cc4ccc(F)cc4C3)cc(=O)c2c1 (single isomer, unassigned) [Example 123, 2-[1-[2-(5-Fluoroisoindolin-2-yl)-6-methyl-4-oxo-chromen-8-yl]ethylamino]benzoic acid]

Reference: US11649227B2, “Allosteric chromenone inhibitors of phosphoinositide 3-kinase (PI3K) for the treatment of disease” (Petra Pharma Corporation, priority 2020, dated 2023)
